Laboratory results: patent US8283465B2, “Triazolopyridine compound, and action thereof as prolyl hydroxylase inhibitor or erythropoietin production-inducing agent” (Japan Tobacco Inc., priority 2009, dated 2012)
Structures can show the parent of a compound that is named as a salt.

Assays:
[1] = tested on: human EPO production, Hep3B cells; assay: Human EPO production activity in Hep3B cells (EPO-ELISA of culture supernatant); format: cell-based; details: for EC50: Homo sapiens, 24 hr incubation, values consisting solely of numbers, read-out: EC50 (μM) in vitro, human EPO production activity; for production activity (%) at 30 μM in vitro, human EPO: 24 hr, values containing %, relative to maximum production
Outline: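 Hep3B cells were dosed with compound 24 h after plating and incubated 24 h at 37° C. Secreted EPO in supernatant was measured by ELISA. Values are EC50, or activity (%) at 30 μM scaled between untreated and maximum production.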

human PHD2 = biological target: T1, human PHD2 (Homo sapiens, UniProt Q9GZT9); assay: Measurement of human PHD inhibitory activity (TR-FRET, hydroxylation of HIF-1α partial peptide); format: biochemical; details: human PHD2 enzyme 1 nM, 25° C. 30 min, values consisting solely of numbers; read-out: IC50 (μM) in vitro, human PHD inhibitory activity
T1 construct: made in house; host or cells: Sf9 insect cells (baculovirus, pVL1393 vector)
T1 sequence (Q9GZT9 whole entry): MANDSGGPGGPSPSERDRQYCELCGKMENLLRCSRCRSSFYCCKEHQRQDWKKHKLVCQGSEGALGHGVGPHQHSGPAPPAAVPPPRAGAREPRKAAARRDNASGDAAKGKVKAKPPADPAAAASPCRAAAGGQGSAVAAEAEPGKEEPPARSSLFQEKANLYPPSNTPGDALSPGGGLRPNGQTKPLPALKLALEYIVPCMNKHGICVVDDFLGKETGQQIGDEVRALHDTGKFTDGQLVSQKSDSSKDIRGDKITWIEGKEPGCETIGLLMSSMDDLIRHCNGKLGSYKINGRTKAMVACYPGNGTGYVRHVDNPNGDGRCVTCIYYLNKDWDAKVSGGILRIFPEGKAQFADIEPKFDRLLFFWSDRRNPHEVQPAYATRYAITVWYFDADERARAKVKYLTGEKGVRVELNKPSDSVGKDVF
Outline: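 FLAG-tagged human PHD2 from Sf9 cells (1 nM final) hydroxylates a biotinylated 19-residue HIF-1α peptide, 30 min at 25° C. After EDTA stop, hydroxyproline detected by TR-FRET using Eu/Xlent-labelled VBC complex; % inhibition relative to no-enzyme and no-compound wells.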

Compound | EC50 [1] [µM] | IC50 (human PHD2) [µM] | production activity (%) at 30 μM in vitro, human EPO [1] [%]
O=C(O)CNC(=O)c1c(O)cc(-c2cc(F)cc(F)c2)n2ncnc12 [Example 21, {[5-(3,5-difluorophenyl)-7-hydroxy[1,2,4]triazolo[1,5-a]pyridine-8-carbonyl]amino}acetic acid] | 12 | 0.25 | 
O=C(O)CNC(=O)c1c(O)cc(CCC2CCCCC2)c2ncnn12 [Example 98, {[8-(2-cyclohexylethyl)-6-hydroxy[1,2,4]triazolo[1,5-a]pyridine-5-carbonyl]amino} acetic acid hydrochloride] | 25.6 | 1.13 | 
O=C(O)CNC(=O)c1c(O)cc(-c2cc(F)cc(Cl)c2)c2ncnn12 [Example 105, {[8-(3-chloro-5-fluorophenyl)-6-hydroxy[1,2,4]triazolo[1,5-a]pyridine-5-carbonyl]amino} acetic acid hydrochloride] | 5.9 | 0.1 | 
O=C(O)CNC(=O)c1c(O)cc(-c2ccc(Cl)c(F)c2)n2ncnc12 [Example 78, {[5-(4-chloro-3-fluorophenyl)-7-hydroxy[1,2,4]triazolo[1,5-a]pyridine-8-carbonyl]amino} acetic acid hydrochloride] | 6.6 | 0.15 | 
O=C(O)CNC(=O)c1c(O)cc(-c2ccc(C3CC3)cc2F)n2ncnc12 [Example 82, {[5-(4-cyclopropyl-2-fluorophenyl)-7-hydroxy[1,2,4]triazolo[1,5-a]pyridine-8-carbonyl]amino} acetic acid hydrochloride] | 5.4 | 0.15 | 
CC(C)c1cc(O)c(C(=O)NCC(=O)O)c2ncnn12 [Example 35, [(7-hydroxy-5-isopropyl[1,2,4]triazolo[1,5-a]pyridine-8-carbonyl)amino]acetic acid hydrochloride] |  | 0.88 | 43
O=C(O)CNC(=O)c1c(O)cc(-c2cccc(Cl)c2F)n2ncnc12 [Example 56, {[5-(3-chloro-2-fluorophenyl)-7-hydroxy[1,2,4]triazolo[1,5-a]pyridine-8-carbonyl]amino} acetic acid hydrochloride] | 8.4 | 0.19 | 
O=C(O)CNC(=O)c1c(O)cc(CCc2ccc(F)cc2)c2ncnn12 [Example 90, ({8-[2-(4-fluorophenyl)-ethyl]-6-hydroxy[1,2,4]triazolo[1,5-a]pyridine-5-carbonyl}amino) acetic acid hydrochloride] | 16.6 | 0.29 | 
Cc1nnc2c(C(=O)NCC(=O)O)c(O)c(-c3ccccc3)cn12.Cl [Example 112, [(7-hydroxy-3-methyl-6-phenyl[1,2,4]triazolo[4,3-a]pyridine-8-carbonyl)amino] acetic acid hydrochloride] |  | 3.09 | 0
CCC(CC)c1cc(O)c(C(=O)NCC(=O)O)c2ncnn12 [Example 40, {[5-(1-ethylpropyl)-7-hydroxy[1,2,4]triazolo[1,5-a]pyridine-8-carbonyl]amino}acetic acid hydrochloride] | 17.7 | 0.87 | 
CC(NC(=O)c1c(O)cc(-c2cc(F)cc(F)c2)n2ncnc12)C(=O)O (centres unmarked) [Example 66, 2-{[5-(3,5-difluorophenyl)-7-hydroxy-[1,2,4]triazolo [1,5-a]pyridine-8-carbonyl]amino} propionic acid hydrochloride] | 21.1 | 1.5 | 
Cc1ccc(-c2cc(O)c(C(=O)NCC(=O)O)c3ncnn23)cc1 [Example 26, {[7-hydroxy-5-(p-tolyl)[1,2,4]triazolo[1,5-a]pyridine-8-carbonyl]amino}acetic acid hydrochloride] | 7.5 | 0.33 | 
O=C(O)CNC(=O)c1c(O)cc(-c2cc(Cl)cc(Cl)c2)c2ncnn12 [Example 89, {[8-(3,5-dichlorophenyl)-6-hydroxy[1,2,4]triazolo[1,5-a]pyridine-5-carbonyl]amino} acetic acid hydrochloride] | 4.2 | 0.12 | 
O=C(O)CNC(=O)c1c(O)cc(CCc2cc(F)cc(F)c2)n2ncnc12 [Example 19, ({5-[2-(3,5-difluorophenyl)ethyl]-7-hydroxy[1,2,4]triazolo[1,5-a]pyridine-8-carbonyl}amino)acetic acid hydrochloride] | 6.6 | 0.26 | 
O=C(O)CNC(=O)c1c(O)cc(CCc2ccc(Cl)cc2)n2ncnc12 [Example 14, ({5-[2-(4-chlorophenyl)ethyl]-7-hydroxy[1,2,4]triazolo[1,5-a]pyridine-8-carbonyl}amino)acetic acid hydrochloride] | 5.1 | 0.23 | 
Cl.O=C(O)CNC(=O)c1c(O)c(-c2ccccc2)cn2c(-c3ccccc3)nnc12 [Example 111, [(7-hydroxy-3,6-diphenyl[1,2,4]triazolo[4,3-a]pyridine-8-carbonyl)amino] acetic acid hydrochloride] |  | 1.1 | 0

Compound | EC50 [1] [µM] | IC50 (human PHD2) [µM] | production activity (%) at 30 μM in vitro, human EPO [1] [%]
O=C(O)CNC(=O)c1c(O)cc(-c2cc(Cl)cc(Cl)c2)n2ncnc12 [Example 46, {[5-(3,5-dichlorophenyl)-7-hydroxy[1,2,4]triazolo[1,5-a]pyridine-8-carbonyl]amino}acetic acid hydrochloride] | 4.8 | 0.29 | 
O=C(O)CNC(=O)c1c(O)cc(CCC2CC2)n2ncnc12 [Example 47, {[5-(2-cyclopropylethyl)-7-hydroxy[1,2,4]triazolo[1,5-a]pyridine-8-carbonyl]amino}acetic acid hydrochloride] | 12 | 0.56 | 
O=C(O)CNC(=O)c1c(O)cc(CCc2ccccc2)n2nc(C3CC3)nc12 [Example 15, [(2-cyclopropyl-7-hydroxy-5-phenethyl[1,2,4]triazolo[1,5-a]pyridine-8-carbonyl)amino]acetic acid hydrochloride] | 29.1 | 1.8 | 
O=C(O)CNC(=O)c1c(O)cc(-c2ccc(F)c(Cl)c2)n2ncnc12 [Example 23, {[5-(3-chloro-4-fluorophenyl)-7-hydroxy[1,2,4]triazolo[1,5-a]pyridine-8-carbonyl]amino}acetic acid hydrochloride] | 7.8 | 0.19 | 
O=C(O)CNC(=O)c1c(O)cc(-c2ccc(Cl)c(Cl)c2)c2ncnn12 [Example 95, {[8-(3,4-dichlorophenyl)-6-hydroxy[1,2,4]triazolo[1,5-a]pyridine-5-carbonyl]amino} acetic acid hydrochloride] | 4.3 | 0.12 | 
O=C(O)CNC(=O)c1c(O)cc(-c2ccc(Cl)cc2)n2ncnc12 [Example 50, {[5-(4-chlorophenyl)-7-hydroxy[1,2,4]triazolo[1,5-a]pyridine-8-carbonyl]amino}acetic acid hydrochloride] | 5.6 | 0.18 | 
O=C(O)CNC(=O)c1c(O)cc(-c2cccc(C(F)(F)F)c2)c2ncnn12 [Example 110, {[6-hydroxy-8-(3-trifluoromethyl phenyl)[1,2,4]triazolo[1,5-a]pyridine-5-carbonyl]amino} acetic acid hydrochloride] | 6.5 | 0.15 | 
O=C(O)CNC(=O)c1c(O)cc(-c2ccc(F)c(Cl)c2)c2ncnn12 [Example 94, {[8-(3-chloro-4-fluorophenyl)-6-hydroxy[1,2,4]triazolo[1,5-a]pyridine-5-carbonyl]amino} acetic acid hydrochloride] | 9.7 | 0.11 | 
N#Cc1cccc(-c2cc(O)c(C(=O)NCC(=O)O)c3ncnn23)c1 [Example 37, {[5-(3-cyanophenyl)-7-hydroxy[1,2,4]triazolo[1,5-a]pyridine-8-carbonyl]amino}acetic acid hydrochloride] |  | 0.2 | 11
CCCc1c(Cl)c(O)c(C(=O)NCC(=O)O)c2ncnn12.Cl [Example 81, [(6-chloro-7-hydroxy-5-propyl[1,2,4]triazolo[1,5-a]pyridine-8-carbonyl)amino] acetic acid hydrochloride] |  | 6.09 | 33
O=C(O)CNC(=O)c1c(O)cc(-c2cc(Cl)cc(C(F)(F)F)c2)n2ncnc12 [Example 36, {[5-(3-chloro-5-trifluoromethyl-phenyl)-7-hydroxy[1,2,4]triazolo[1,5-a]pyridine-8-carbonyl]amino}acetic acid hydrochloride] | 10.5 | 0.72 | 
O=C(O)CNC(=O)c1c(O)cc(-c2cccc(C(F)(F)F)c2F)n2ncnc12 [Example 55, {[5-(2-fluoro-3-trifluoromethyl-phenyl)-7-hydroxy[1,2,4]triazolo[1,5-a]pyridine-8-carbonyl]amino} acetic acid hydrochloride] | 8.9 | 0.23 | 
CCC(C)(C)CCc1cc(O)c(C(=O)NCC(=O)O)c2ncnn12 [Example 48, hydrochloride] | 4.5 | 0.59 | 
CCC(CC)Cc1cc(O)c(C(=O)NCC(=O)O)c2ncnn12 [Example 45, {[5-(2-ethylbutyl)-7-hydroxy[1,2,4]triazolo[1,5-a]pyridine-8-carbonyl]amino}acetic acid hydrochloride] | 9.9 | 0.92 | 
O=C(O)CNC(=O)c1c(O)cc(CC2CCCCC2)n2ncnc12 [Example 28, [(5-cyclohexylmethyl-7-hydroxy[1,2,4]triazolo[1,5-a]pyridine-8-carbonyl)amino]acetic acid hydrochloride] | 13.9 | 1.38 | 
